In PMC9687805 (Biomolecules, 2022):
“And” between values parts separate entries of the source, which are not always exact repeats. Equal entries are not always repeated.

Legend:
EeAChE PAS = target: T1, EeAChE PAS (Electrophorus electricus, UniProt O42275); experiment: biochemical; assay type: binding; details: 0.25 h; compound 20 μM, EeAChE 7 μM, propidium iodide 8 μM; n.a. = not active; read-out: % Displacement of Propidium from the EeAChE PAS at 20 μM
T1 construct: purchased Sigma-Aldrich type VI-S; host or cells: electric eel
Procedure: Electrophorus electricus (EeAChE) (electric eel, type VI-S, lyophilized powder, Sigma-Aldrich, St. Louis, MO, USA) was used owing to its high degree of purification, high activity, and lower cost than human AChE (hAChE). […] To determine the degree of displacement (% displacement) of propidium from the PAS of AChE, EeAChE (final concentration, 7 μM) was incubated with the test compound at a concentration of 20 μM in 1 mM Tris-HCl buffer pH 8.0, 25 °C, for 15 min. Then, propidium iodide solution (final concentration, 8 μM) was added, the samples were incubated for 15 min, and the fluorescence spectrum (530 nm (excitation) and 600 nm (emission)) was taken. […] The blank contained propidium iodide of the same concentration in 1 mM Tris-HCl buffer, pH 8.0 at 25 °C. The measurements were carried out in triplicate on a FLUOStar Optima microplate reader (LabTech, Ortenberg, Germany), and the results were calculated by the following formula:% Displacement = 100 − (IFAChE + Propidium + inhibitor / IFAChE + Propidium) × 100 (1) where IFAChE + Propidium is the fluorescence intensity of the propidium associated with AChE in the absence of the test compound (taken as 100%), and IFAChE + Propidium + inhibitor is the fluorescence intensity of the propidium associated with AChE in the presence of the test compound.

[1] = Metal-chelating properties by UV-Vis spectrometry in acetonitrile; assay type: physicochemical; details: compound 40 µM, metal 40 µM, 25 °C, red shift of absorbance
Procedure: The complexing studies were made in acetonitrile at 25 °C using a UV–vis spectrophotometer Shimadzu UV-2600 (Shimadzu Corporation, Kyoto, Japan) with wavelength ranging from 190 to 600 nm. Solutions (200 µM in acetonitrile) of the following metals compounds were prepared in volumetric flasks: FeCl2·4H2O (99%, Acros Organics by Thermo Fisher Scientific (Kandel, Germany)), CuCl2 (98%, Alfa Aesar by Thermo Fisher Scientific (Kandel, Germany)), or Zn(NO3)2·6H2O (98%, Alfa Aesar by Thermo Fisher Scientific (Kandel, Germany). Solutions of the test compounds were also prepared in acetonitrile at 400 µM concentrations. To a mixture of 0.5 mL test compound solution (40 μM final concentration) and 3.5 mL acetonitrile, 1 mL of the metal solution (CuCl2, FeCl2·4H2O, or Zn(NO3)2·6H2O; 40 µM final concentration) was added. The solution was incubated at 25 °C for 30 min and then the absorption spectra were recorded at 25 °C in a 1 cm quartz cell. The control was prepared by mixing 0.5 mL tested compound solution and 4.5 mL acetonitrile.

porcine liver CES [2] = experiment: CES inhibition, 4-nitrophenyl acetate hydrolysis; details: compound 20 μM; mean ± SEM, n = 3; n.a. = not active
Procedure: Final enzyme and substrate (4-nitrophenyl acetate) concentrations were 0.02 unit/mL and 1 mM, respectively. Assays were carried out with a blank containing all constituents except porcine CES to assess non-enzymatic hydrolysis. Measurements were performed with a FLUOStar Optima microplate reader (BMG Labtech, Ortenberg, Germany). Compounds were dissolved in DMSO; the incubation mixture contained 2% (v/v) solvent. The primary evaluation of the inhibitory activity of the compounds was performed by determining the degree of the enzyme inhibition at a compound concentration of 20 µM. For this, a sample of the corresponding enzyme was incubated with the test compound for 5 min; then the enzyme residual activity was determined. Each experiment was performed in triplicate. […] Substrate was then added and residual enzyme activity relative to an inhibitor-free control was measured using a FLUOStar Optima microplate reader.

[3] = ABTS radical cation scavenging activity assay; parameters: key to ABTS•+-scavenging activity, TEAC: ratio of slopes, tested compound vs Trolox (Trolox = 1); details: n=3, 1 h, 30 °C; for ABTS•+-scavenging activity, TEAC: Trolox equivalent antioxidant capacity, mean ± SEM; for IC50: concentration for 50% reduction of ABTS radical cation
Procedure: Radical scavenging activity of the compounds was evaluated by the ABTS radical cation (ABTS^•+) scavenging assay showing the ability of the compounds to decolorize the ABTS^•+ solution [86] with some modifications. Trolox was used as the antioxidant standard; ascorbic acid was used as the comparison compound. All tested compounds and standards were dissolved in DMSO.
The solution of ABTS^•+ was produced by mixing 7 mM ABTS aqueous solution with 2.45 mM potassium persulfate aqueous solution in equal quantities and allowing them to react for 12–16 h at room temperature in the dark. Radical scavenging capacity of the compounds was analyzed by mixing 10 µL of compound with 240 µL of ABTS^•+ working solution in ethanol (100 µM final concentration), and after 1 h of incubation at 30 °C the decrease in absorbance was measured spectrophotometrically at 734 nm using a Bio-Rad xMark microplate UV/VIS spectrophotometer (Bio-Rad, Hercules, CA, USA). The compounds were tested in the concentration range 5 × 10^−7–1 × 10^−4 M. Ethanol blanks were run in each assay. Values were obtained from five replicates of each sample and three independent experiments.
Antioxidant activity was reported as Trolox equivalent antioxidant capacity (TEAC values), consisting of the ratio between the slopes obtained from the linear correlation for concentrations of the tested compounds and Trolox with absorbance of ABTS radical. […] The calculations were carried out using Origin 6.1 for Windows (OriginLab, Northampton, MA, USA). Results are presented as mean ± SEM calculated using GraphPad Prism version 6.05 for Windows, GraphPad Software (San Diego, CA, USA).

[4] = Ferric reducing antioxidant power (FRAP) assay; details: Trolox equivalents; n=3, 1 h, 37 °C; mean ± SEM
Procedure: The FRAP (Ferric Reducing Antioxidant Power) assay measures the ability of antioxidants to reduce the ferric 2,4,6-tripyridyl-s-triazine complex [Fe(TPTZ)2]^3+ to the intensely blue-colored ferrous complex [Fe(TPTZ)2]^2+ with an absorption maximum at λ = 593 nm. The reducing ability of a compound is an indicator of its potential antioxidant activity.
The ferric reducing ability of the compounds was determined by a previously described method as a microplate-adapted version described in [42]. 2,4,6-tris(pyridin-2-yl)-1,3,5-triazine (TPTZ), FeCl3·6H2O, Trolox, ascorbic acid and DMSO were obtained from Sigma-Aldrich Chemical Co (St. Louis, MO, USA). The FRAP reagent was prepared by mixing acetate buffer (0.3 M, pH 3.6), TPTZ (10 mM in 40 mM HCl) and FeCl3·6H2O (20 mM in distilled water) in a ratio of 10:1:1 immediately before use. Compounds were dissolved in DMSO and tested in the concentration range of 1×10^−6–1×10^−4 M. The solvent content in the reaction mixture was 4% (v/v). The test compounds (10 µL) were added to the FRAP reagent solution (240 µL) and mixed thoroughly. The reaction was carried out at 37 °C in the dark, the incubation time was 1 h. The absorbance at 600 nm was monitored spectrophotometrically by a FLUOStar OPTIMA microplate reader (BMG Labtech, Germany) at 37 °C. Trolox was used as a standard antioxidant, ascorbic acid as a reference compound. Values were obtained from four replicates of each sample and three independent experiments.
The ferric reducing ability of compounds was expressed as TE units (antioxidant activity in Trolox equivalent) with the values calculated as the ratio of the concentrations of Trolox and the test compound resulting in the same effect.

Human erythrocyte AChE [5] = target: T2, Human erythrocyte AChE (Homo sapiens, UniProt P22303); experiment: biochemical; details: human erythrocyte AChE; 5 min incubation, 25 °C, pH 7.5; mean ± SEM, n = 3; read-out: Inhibitory activity against AChE, IC50
T2 construct: purchased Sigma-Aldrich; host or cells: human erythrocytes
Procedure: (§1) The assay solution consisted of 0.1 M K/Na phosphate buffer pH 7.5, 25 °C, 0.33 mM DTNB, 0.02 unit/mL AChE or BChE, and 1 mM substrate (ATCh or BTCh, respectively). Reagent blanks consisted of reaction mixtures without substrates.
(§2) Each experiment was performed in triplicate.

equine serum BChE [6] = target: T3, equine serum BChE (Equus caballus, UniProt P81908); experiment: biochemical; details: equine serum BChE; 5 min incubation, 25 °C, pH 7.5; mean ± SEM, n = 3; read-out: Inhibitory activity against BChE, IC50
T3 construct: purchased Sigma-Aldrich; host or cells: equine serum
Procedure: as §1, §2

equine serum BChE [7] = target: T3, equine serum BChE; experiment: Kinetic study of BChE inhibition (Lineweaver-Burk); assay type: biochemical
Procedure: (§3) Mechanisms of human erythrocyte AChE and equine serum BChE inhibition were assessed via a thorough analysis of enzyme kinetics. Residual activity was measured following 5 min incubation at 25 °C with three increasing concentrations of inhibitor and six decreasing substrate concentrations.

Human erythrocyte AChE [8] = target: T2, Human erythrocyte AChE; experiment: Kinetic study of AChE inhibition (Lineweaver-Burk); assay type: biochemical
Procedure: as §3

[9] = parameters: method as in PMID 33831780; details: cited from earlier work
porcine liver CES [10] = system: porcine liver CES; parameters: method as in PMID 33831780; details: cited from earlier work
[11] = Lineweaver-Burk plot, changes in Km and Vmax

T3 sequence (P81908 whole entry): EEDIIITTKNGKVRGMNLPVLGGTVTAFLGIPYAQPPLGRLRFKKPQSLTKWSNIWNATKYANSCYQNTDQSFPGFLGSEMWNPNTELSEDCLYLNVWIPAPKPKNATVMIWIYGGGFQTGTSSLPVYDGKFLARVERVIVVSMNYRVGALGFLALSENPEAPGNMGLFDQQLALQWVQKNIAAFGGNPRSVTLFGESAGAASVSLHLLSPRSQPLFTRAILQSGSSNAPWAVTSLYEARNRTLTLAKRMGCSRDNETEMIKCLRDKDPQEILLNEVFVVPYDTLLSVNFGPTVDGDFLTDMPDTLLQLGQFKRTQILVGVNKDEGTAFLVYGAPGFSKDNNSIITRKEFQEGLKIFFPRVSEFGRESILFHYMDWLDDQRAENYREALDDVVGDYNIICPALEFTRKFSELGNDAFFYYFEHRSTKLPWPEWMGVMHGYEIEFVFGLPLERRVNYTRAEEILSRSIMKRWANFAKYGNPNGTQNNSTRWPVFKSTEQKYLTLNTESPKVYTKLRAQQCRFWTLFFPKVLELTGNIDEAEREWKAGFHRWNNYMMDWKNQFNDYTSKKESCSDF
T1 sequence (O42275 24-633): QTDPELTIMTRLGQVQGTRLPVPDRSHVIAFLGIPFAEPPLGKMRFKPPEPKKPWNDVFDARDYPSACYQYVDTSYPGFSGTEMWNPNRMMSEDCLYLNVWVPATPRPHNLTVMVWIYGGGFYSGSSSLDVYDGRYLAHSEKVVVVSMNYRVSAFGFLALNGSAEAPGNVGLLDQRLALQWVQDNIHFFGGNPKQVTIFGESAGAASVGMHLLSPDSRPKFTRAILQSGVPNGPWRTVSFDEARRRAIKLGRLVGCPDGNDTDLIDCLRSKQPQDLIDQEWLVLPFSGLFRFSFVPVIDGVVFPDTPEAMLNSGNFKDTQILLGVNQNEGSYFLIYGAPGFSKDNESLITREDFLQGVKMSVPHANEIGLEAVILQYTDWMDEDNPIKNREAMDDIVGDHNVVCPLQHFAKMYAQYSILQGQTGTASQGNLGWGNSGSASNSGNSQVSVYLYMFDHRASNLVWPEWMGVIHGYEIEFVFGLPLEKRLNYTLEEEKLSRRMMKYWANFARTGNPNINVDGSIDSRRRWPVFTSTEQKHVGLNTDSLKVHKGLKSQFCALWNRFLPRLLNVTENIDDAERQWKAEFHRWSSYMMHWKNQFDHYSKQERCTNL
T2 sequence (P22303 32-617 isoform P22303-2 limits assumed): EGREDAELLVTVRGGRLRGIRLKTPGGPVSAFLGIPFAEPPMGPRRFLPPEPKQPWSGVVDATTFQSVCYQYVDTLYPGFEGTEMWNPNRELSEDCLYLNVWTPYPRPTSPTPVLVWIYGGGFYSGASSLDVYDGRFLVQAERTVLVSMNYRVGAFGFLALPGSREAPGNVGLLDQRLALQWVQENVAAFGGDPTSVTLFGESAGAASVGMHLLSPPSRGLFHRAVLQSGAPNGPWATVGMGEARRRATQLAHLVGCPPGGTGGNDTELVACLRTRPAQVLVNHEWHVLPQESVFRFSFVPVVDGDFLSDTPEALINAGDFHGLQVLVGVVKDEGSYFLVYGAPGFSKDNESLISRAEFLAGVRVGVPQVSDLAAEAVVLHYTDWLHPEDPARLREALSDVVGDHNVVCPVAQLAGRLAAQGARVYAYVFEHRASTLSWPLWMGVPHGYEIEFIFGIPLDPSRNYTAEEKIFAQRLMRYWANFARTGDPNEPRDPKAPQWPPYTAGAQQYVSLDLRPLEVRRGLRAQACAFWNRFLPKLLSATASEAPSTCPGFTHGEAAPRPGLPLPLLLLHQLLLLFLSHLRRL

SMILES	inhibition at 20 µM (EeAChE PAS) [%]	Metal-chelating ability for Cu2+, Fe2+ and Zn2+ [1]	Inhibitory activity against CES, % inhibition at 20 μM (porcine liver CES [2]) [%]	ABTS•+-scavenging activity, TEAC [3]	IC50 [3] [nM]	FRAP (Fe3+-reducing activity), TE [4]	IC50 (Human erythrocyte AChE [5]) [nM]	IC50 (equine serum BChE [6])	Type of BChE inhibition (equine serum BChE [7]; [11])	αKi (noncompetitive component), BChE (equine serum BChE [7]; mixed type inhibition) [µM]	Ki (equine serum BChE [7]; mixed type inhibition, read-out: Ki (competitive component), BChE) [nM]	Type of AChE inhibition (Human erythrocyte AChE [8]; [11])	αKi (noncompetitive component), AChE (Human erythrocyte AChE [8]; mixed type inhibition) [µM]	Ki (Human erythrocyte AChE [8]; mixed type inhibition, read-out: Ki (competitive component), AChE) [nM]	radical-scavenging activity in the ABTS assay [9]	inhibitory activity against CES (porcine liver CES [10])
C/C(NCCCCNc1c2c(nc3ccccc13)CCCC2)=C(/N=N/c1ccc(C)cc1)C(=O)c1ccccc1 [7a]	11.9 ± 0.8	metal-chelating ability	31.2 ± 2.9	0.90 ± 0.04	22300 ± 1900	0.43 ± 0.04	889 ± 7	36 nM and 35.9 nM								
CC(=O)C(/N=N/c1ccc(C)cc1)=C(\C)NCCCCCCNc1c2c(nc3ccccc13)CCCC2 [6b]	19 ± 1.3		29.0 ± 0.1	1.00 ± 0.02	18600 ± 1400	0.48 ± 0.04	342 ± 15	138 ± 2 nM	mixed type of inhibition	0.224 ± 0.022	95 ± 8	mixed type of inhibition	0.473 ± 0.041	254 ± 18		
Cc1ccc(NN=C(C(=O)c2ccccc2)C(=O)C(F)(F)F)cc1 [1d, 4,4,4-trifluoro-2-[2-(4-methylphenyl)hydrazinylidene]-1-phenylbutane-1,3-dione]															high radical-scavenging activity	
CC(=O)C(=NNc1ccc(C)cc1)C(=O)C(F)(F)F [1c, 1,1,1-trifluoro-3-[2-(4-methylphenyl)hydrazinylidene]pentane-2,4-dione]															high radical-scavenging activity	moderate inhibitory activity
CC(=O)C(/N=N/c1ccc(C)cc1)=C(\C)NCCCCNc1c2c(nc3ccccc13)CCCC2 [6a]	15.6 ± 1.2	metal-chelating ability	23.3 ± 0.4	1.00 ± 0.03	19500 ± 1100	0.37 ± 0.06	1390 ± 40	139 ± 17 nM								
